Measurements as given in patent publication US20100184679A1, “USE OF A COMBINATION OF CART PEPTIDES AS A THERAPEUTIC AGENT” (priority 2007, published 2010).
Where no end group is shown, it is not given here.

Assays:
[1] = system: HIV-1IIIB; test: HIV-1 antiviral assay in CEM-SS cells (MTS readout)
[2] = system: HCMV strain AD169; test: HCMV plaque formation assay in MRC-5 cells; assay type: cell-based; conditions: for inhibition of HCMV plaque formation as compared to the virus control experiment: 10 micrograms per ml, 7-10 days
Text: Ganciclovir was used as positive control.

[3] = system: HUVEC; test: Endothelial tube formation assay; assay type: cell-based, human; conditions: 10 micrograms per ml, 20 hours
Text: Positive control was vehicle only.

[4] = system: murine spleen cells; test: Th1/Th2 cytokine profiling assay (Ovalbumin-restimulated spleen cells, CBA Kit); assay type: cell-based, Balb/c mice; conditions: 10 micrograms per ml, Ovalbumin restimulation, 72 hours
Text: The Balb/c mice (originated in 1923, it is a popular strain and is used in many different research disciplines. Also classified as an inbred from the production of 20 or more successive brother-sister matings, the Balb/c mouse is albino and small in size) were immunized on Days 1, 15, and 29 with Ovalbumin (Ovalbumin is the main protein found in egg white, commonly used to stimulate an immunological reaction in test animals) in PBS (5 micrograms/injection). On day 50, spleens of the mice were harvested (3 weeks after last boost with Ovalbumin), Cells were cultured (2×10^5/well in triplicate) and incubated with culture medium or test peptides—10 micrograms per ml—for 30 min. Thereafter, additional Ovalbumin was added to the cells at 10 micrograms/ml for in vitro restimulation of the cells. 72 hours later, cell supernatants were harvested and assayed using the Becton Dickinson Mouse Th1/Th2 Cytokine CBA Kit. This kit can be used to measure Interleukin-2 (IL-2), Interleukin-4 (IL-4), Interleukin-5 (IL-5), Interferon-γ (IFN-γ), and Tumor Necrosis Factor-α (TNF-α) protein levels in a single sample. The kit performance has been optimized for analysis of physiologically relevant concentrations (pg/ml levels) of specific cytokine proteins in tissue culture supernatants and serum samples.

[5] = system: hepatitis B virus (HBV) ayw strain; test: HBV assay in HepG2-2.2.15 cells (TaqMan PCR of secreted HBV DNA); assay type: cell-based; conditions: 10 micrograms per ml, six days, HBV DNA in supernatant
[6] = system: Primary Human endothelial cells (HUVEC); test: Endothelial cell migration assay; assay type: cell-based; conditions: 10 micrograms per ml, 22 hours
Protocol: Thereafter, designated concentration of testing peptides—10 micrograms per ml—was added in duplicate wells.

[7] = system: Human A549 cells; test: Apoptosis induction assay (Annexin-5); assay type: cell-based; conditions: 10 micrograms per ml, 24 hours
Protocol: Human A549 cells (carcinomic human alveolar basal epithelial cells) were utilized in the experiments employing the Annexin-5 apoptosis assay. […] Test peptides—10 micrograms per ml—were exposed for 24 hours to the A549 cells before they were analyzed for signs of apoptosis.

Compound | antiviral activity of positive control compounds (HIV-1) [1] | inhibition of the tube formation of human endothelial cells [3] | change of the production of IFN-gamma [4] | change of the production of IL-5 [4] | production of TNF-alpha, induced by [4] | inhibition of HBV replication as compared to the virus control infection [5] | inhibition of HCMV plaque formation as compared to the virus control experiment [2] | inhibition of the migration of human endothelial cells [6] | induction of apoptosis on human lung cells [7] | other results
Cc1cn([C@H]2C[C@H](N=[N+]=[N-])[C@@H](CO)O2)c(=O)[nH]c1=O [AZT] | expected levels of antiviral activity |  |  |  |  |  |  |  |  | 
Nc1nc(O)c2ncn(COC(CO)CO)c2n1 [Ganciclovir, reference compound] |  |  |  |  |  |  |  |  |  | antiviral activity of positive control compound (HCMV) ([2]; positive control): expected levels of antiviral activity
CC(C)(C)NC(=O)[C@@H]1CN(Cc2cccnc2)CCN1C[C@@H](O)C[C@@H](Cc1ccccc1)C(=O)N[C@H]1c2ccccc2C[C@H]1O [indinavir] | expected levels of antiviral activity |  |  |  |  |  |  |  |  | 
Tyr-Gly-Gln-Val-Pro-Met-Cys-Asp-Ala-Gly-Glu-Gln-Cys-Ala-Val-OH (YGQVPMCDAGEQCAV-OH; cysteine pairing not given here) [Peptide 1] |  | 16% | did not significantly change | did not significantly change | 95.0% | 33.6% | 0.7% | 15% | did not show any significant induction | production of IL-2, induced by [4]: 147.7%; production of IL-4, induced by [4]: 545.4%
Val-Pro-Ile-Tyr-Glu-Lys-Lys-Tyr-Gly-Gln-Val-Pro-Met-Cys-Asp-Ala-Gly-Glu-Gln-Cys-Ala-Val-Arg-Lys-Gly-Ala-Arg-Ile-Gly-Lys-Leu-Cys-Asp-Cys-Pro-Arg-Gly-Thr-Ser-Cys-Asn-Ser-Phe-Leu-Leu-Lys-Cys-Leu-OH (VPIYEKKYGQVPMCDAGEQCAVRKGARIGKLCDCPRGTSCNSFLLKCL-OH; cysteine pairing not given here) [Peptide 2] |  | 12% | did not significantly change | did not significantly change | 27.5% | 45.0% | 6.6% | 22% | 17.8% | production of IL-2, decreased by [4]: 61.5%; production of IL-4, decreased by [4]: 100%
